These results are taken from PMC13327620, “A Deep‐Red‐Absorbing Osmium(II) Complex as a Photosensitizer for Photodynamic Therapy Inducing Immunogenic Cell Death” (Angewandte Chemie (International Ed. in English), 2026).

The subject of one data set is calreticulin (ecto‐CRT). Briefly: Immunofluorescence staining of cell surface calreticulin in CT26 cells. The format is cell-based, mouse. The note with it: CT26, 740 nm light. Here is the method: Next, translocation of ER‐resident calreticulin (endo‐CRT) to the cell surface (ecto‐CRT) was measured by confocal microscopy following treatments with Ce6 or Os2 exposed to 740 or 770 nm illumination (Figure 3B,D). In this experiment, cells were fixed but not permeabilized before CRT staining to label only the ecto‐CRT, which is present at the cell surface. […]
concentrations and incub ated for 4 h in the dark. Following the 4 h dark incubation with Os2, wells containing the compound were replaced with the medium containing the selective ROS s caveng ers: 5 mM sodium azide (NaN₃) for singlet oxygen (¹O₂) or 50 mM D-mannitol for hydroxyl radicals (•OH). […] Cell viability was assessed using a 0.2 mg/mL resazurin solution incubated in the dark for 4 h, and fluorescence was measured on a BioTek Cytation 5 Cell Imaging Multimode […]
Singlet oxygen and hydroxyl r adical generation k inetics of Os2 in s olution The generation of singlet oxygen (¹O₂) and hydroxyl radicals (•OH) by Os2 in solution was evalu ated using AB DA (100 μ M) and HPF (5 μ M) as probes, respectively. […] AB DA absorban ce d ecay was monitored to track ¹O₂ gener ation, while HPF fluorescence increas e (λex = 490 nm; λ em = 500-700 nm) was measured to track •OH formation. Control solutions without Os2 wer e measured under the same conditions to account for background signals. […]

Data set [1] can be described thus: Photophysical properties (fluorescence and singlet oxygen quantum yield, lifetime). The format is physicochemical. The note with it: in ethanol. As to the method: System Inc, Phoenixville, PA, USA). The excitation beam is separated by a SPEX dual […]
network monochromator (1200 lines / mm blazed at 330 nm). The fluorescence was […]
measured by the UV-Visible detector via the SPEX dual network emission […]
monochromator (1200 lines / mm blazed at 500 nm). Singlet oxygen production was […]
measured with an infrared detector InGaAs (800 - 1550 nm) via the dual network […]
emission monochromator SPEX (600 lines / mm blazed at 1 µm).
All spectra were measured using 4-sided quartz cells. The absorption values of the […]
references and samples at the excitation wavelength were adjusted to 0.2. All emission […]
spectra were normalized to the same absorbance for the purpose of comparison.
[Ru(bpy)3]2+ in acetonitrile was chosen as standard for both fluorescence and singlet […]
oxygen quantum yield determination. Fluorescence quantum yield of [ Ru(bpy)3]2+ i n […]
acetonitrile is evaluated at 0.077.[5] Singlet oxygen quantum yield of [ Ru(bpy)3]2+ i n […]
acetonitrile is evaluat ed at 0.77.[6]
Time-resolved experiments were performed using for excitation: a pulsed laser diode […]
emitting at 407 nm (LDH-P-C-400M, FWHM < 70 ps, 1 MHz) coupled with a driver […]
PDL 800- D (both PicoQuant GmbH, BERLIN, Germany) and for detection: an […]
avalanch e photodiode SPCM-AQR-15 (EG & G, VAUDREUIL, Can ada) coupled with […]
a 650 nm long- wav e p ass filter as det ection system. The acquisition was p erformed by […]
a PicoHarp 300 module with a 4 channels router PHR-800 (both PicoQuant GmbH, […]
BERLIN, Germany ). Th e fluores cence decays were recorded using the single photon […]
counting method. Data were collected up to 1000 counts accumulated in the maximum […]
channel and analyzed using Time Correlated Single Photon Counting (TCSPC) […]
software Fluofit (PicoQuant GmbH, BERLIN, Germany) based on iterative reconvolution using a Levensberg- M arquandt alg oritm, enabling the obtention of multi-exponential profiles (m ainly one or two exponenti als in our cases ). […]

In the case of `C=Cc1c(C)c2cc3nc(c(CC(=O)O)c4[nH]c(cc5nc(cc1[nH]2)C(C)=C5CC)c(C)c4C(=O)O)[C@@H](CCC(=O)O)[C@@H]3C` [Ce6, chlorin e6], the “ecto‐CRT signal” value with calreticulin (ecto‐CRT) was “weaker, but clearly visible”. Further, in data set [1], the Fluorescence lifetime is 4.7 ns, the Fluorescence quantum yield is on record as 0.20 and the “Singlet oxygen quantum yield” value is 0.65.
